Measured values reported in EP1595878A1, “INDOLE DERIVATIVES WITH APOPTOSIS INDUCING ACTIVITY” (Zentaris GmbH, priority 2004, dated 2005).
≈ marks a conversion by molar mass, not a printed value. Where two headings read alike, the source gives them in different places.

Experiments:
[1] = test system: L1210VCR; test: XTT proliferation assay, resistant L1210; format: cell-based, murine; conditions: Mus musculus
From the text: (§1) Die Substanzen 1, 2, 4, 9, 11, 12 , 13 und 15 wurden in einem Proliferationstest an etablierten Tumorzelllinien auf ihre anti-proliferative Aktivität hin untersucht (D.A. Scuderio et al. Cancer Res. 1988, 48, 4827-4833). Der verwendete Test bestimmt die zelluläre Dehydrogenase-Aktivität und ermöglicht eine Bestimmung der Zellvitalität und indirekt der Zellzahl. Bei den verwendeten Zelllinien handelt es sich um die humane Cervixkarzinom Zelllinie KB/HeLa (ATCC CCL17), die ovariale Adenokarzinomzelllinie SKOV-3 (ATCC HTB77), die humane Glioblastom Zelllinie SF-268 (NCI 503138) und die Lungenkarzinom Zelllinie NCI-H460 (NCI 503473). Tabelle 1:
(§2) Zur weiteren Charakterisierung wurden die Substanzen 1, 2, 4 und 11 gegenüber multi drug resistenten Zelllinien im Vergleich zu den nicht-resistenten Wildtypzelllinien untersucht.
(§3) Bei den untersuchten Zelllinien handelt es sich um die murine L1210, die akute myeloische Leukaemie Zelllinie LT12 und um die resistenten Linien L1210/mdr und LT12/mdr. Außerdem wurden die murine P388 Zelllinie (methyl-cholanthreneinduced lymphoid neoplasm) sowie die Doxorubicin-resistente P388 als Testsysteme herangezogen.

[2] = molecular target: humaner DNA-Topoisomerase II (Homo sapiens, UniProt P11388); test: kDNA decatenation assay for topoisomerase II activity; format: biochemical; conditions: compound 1 at 100, 31.6 and 10 µM; reference compounds at 100 µM
Method: In diesem von P. Arimondo (Anti-Cancer Drug Design 2000, 15 (6), 413-421) beschriebenen Assay wird kDNA mit humaner DNA-Topoisomerase II in Abwesenheit oder Gegenwart der Testverbindungen behandelt. Die Testung der erfindungsgemäßen Verbindung 1 erfolgte hierbei bei drei unterschiedlichen Konzentrationen (100, 31.6 und 10 µM). Zum Vergleich setzte man eine Positivkontrolle und die Referenzverbindungen m-Amsacrin (m-Amsa), Paclitaxel (Taxol) und Vincristine bei einer jeweiligen Konzentration von 100µM ein.
Zu 1µL vorgelegter Testsubstanz (20fach konzentriert in 100% DMSO) werden 2µL 10x Assay Puffer, 1µL kDNA (200ng), 0,5µL human Topoisomerase II (1unit) und 15,5µL H2O pipettiert und gemischt.
Die Reaktionsansätze werden in den auf 37°C vorgeheizten Heizblock gestellt und 10min bei 37°C inkubiert. Die Inkubation wird nach Zugabe von 4µL 5x Stop Puffer gestoppt und nachfolgend die Substanz mit CIA extrahiert. Danach werden 20µL des Überstandes auf ein 1 % Agarosegel mit 0,25µg/mL Ethidiumbromid aufgetragen und 1 h bei 100V aufgetrennt. Zum Schluss wird das Gel unter UV-Anregung fotografiert (s. Figur 1). Die Quantifizierung der Inhibierung der Decatenation von kDNA erfolgt mit der GelPro®Analyzer Software (s. Figur 2)

[3] = test system: KB/HeLa Zellen; test: Cell cycle analysis (G2/M arrest); format: cell-based; conditions: Homo sapiens, read-out: EC50 in nM (50% cells in G2/M)
From the text: Der Zellzyklus umfasst die Entwicklung der Zelle von einer Zellgeneration zur nächsten.
Während der Ruhephase (G0) und präsynthetischen Phase (G1) besitzt die Zelle einen diploiden Chromosomensatz (2c). In der Synthesephase (S) wird die DNA-Menge durch Replikation vermehrt. Die S-Phase endet mit Erreichen der prämitotischen Phase (G2M), in der die Zelle einen reduplizierten Chromosomenbestand (4c) und verdoppelten DNA-Gehalt aufweist. In der nachfolgenden, kurzdauernden Mitosephase (M) kommt es zur gleichmäßigen Aufteilung der reduplizierten Chromosomen auf zwei Tochterzellen, die dann jeweils wieder einen diploiden DNA Gehalt zeigen und sich in der G01-Phase befinden, so daß der Zellzyklus neu beginnen kann.
Für die Zellzyklusanalyse wurden KB/HeLa Zellen mit den Testsubstanzen in unterschiedlichen Konzentrationen (0.1-1000 nM) 24 Stunden bei 37°C behandelt.
Der prozentuale Anteil der in der G2/M Phase des Zellzyklus arrettierten Zellen nach Behandlung mit Referenz- oder ausgewählten Testsubstanzen ist in der nachfolgenden Tabelle 4 dargestellt. Die Ergebnisse wurden mit einer speziellen Analysesoftware (ModFit™) ausgewertet.

[4] = format: physicochemical; conditions: water, at most 1 % DMSO added
From the text: Die Bestimmung der Sättigungslöslichkeit in Wasser für die Verbindungen 1, 2, 10 und 14 erfolgte wie nachfolgend beschrieben. Zum Anlösen der Substanzen und um die Benetzung der Proben zu verbessern, wurde maximal 1 % DMSO zugesetzt. Zur Überprüfung des Gehaltes wurde eine HPLC-UV-Methode angewandt. Die Ergebnisse sind in der nachfolgenden Tabelle 5 zusammengefasst: Tabelle 5: […]

[5] = test system: Rindertubulin; test: Inhibition of tubulin polymerisation in vitro; format: biochemical, Rind
From the text: Die Substanzen 1, 4, 9, 11, 12, 13 und 15 wurden in einem in-vitro Test auf Hemmung der Polymerisation von Rindertubulin getestet (D.M. Bollag et al. Cancer Res. 1995, 55, 2325-2333). In diesem Test wird durch Zyklen von Polymerisation und Depolymerisation aufgereinigtes Tubulin eingesetzt, welches durch Zugabe von GTP und Erwärmung zur Polymerisation gebracht wird. In Tabelle 3 sind die EC50 Werte der Polymerisationshemmung von Tubulin mit 30% assoziierten Proteinen (MAPs) angegeben.

[6] = test system: U-937 Zelllinie; test: CDD plus nucleosome ELISA test (apoptosis detection); format: cell-based; conditions: U-937, 1nM-10µM, 24 h treatment; for Nucleosomen im Zelllysat: cell lysate; for Nucleosomen im Zellkulturüberstand: culture supernatant
From the text: Die Kernfragmentierung ist eine Spätfolge apoptotischer Prozesse. Die dabei zu beobachtenden Veränderungen lassen sich auf durch Endonukleasen gespaltene DNA-Stränge und daraus resultierende Fragmentierung in Nucleosomen Partikel zurückführen.
Zum Nachweis der Nucleosomen Partikel wurde der von der Firma Roche Molecular Biochemicals beschriebene CDD^plus Nucleosomen ELISA Test eingesetzt. Hierzu untersuchte man die Verbindungen 1 und 2 an der U-937 Zelllinie bei unterschiedlichen Konzentrationen (1nM-10µM, 24 h Behandlung). (s. Figur 5 und Figur 6)

[7] = molecular target: human Topoisomerase II (Homo sapiens, UniProt P11388); test: pRYG relaxation assay for topoisomerase II activity; format: biochemical; conditions: compound 1 at 100, 31.6 and 10 µM; reference compounds at 316 and 100 µM
Method: Mit diesem Relaxationsassay konnte zusätzlich die inhibitorische Eigenschaft der erfindungsgemäßen Verbindungen auf Topoisomerase II gezeigt werden. Die Testung der erfindungsgemäßen Verbindung 1 erfolgte hierbei bei drei unterschiedlichen Konzentrationen (100, 31.6 und 10 µM). Zum Vergleich setzte man die Referenzverbindungen m-Amsacrin, Paclitaxel (Taxol) und Vincristine bei Konzentrationen von 316 und 100µM ein.
Zu 1µL vorgelegter Testsubstanz (20fach konzentriert in 100% DMSO) werden 2µL 10x Assay Puffer, 0,5µL pRYG DNA (125ng), 0,5µL human Topoisomerase II (1 unit) und 16µL H2O pipettiert und gemischt. Die Reaktionsansätze werden in den auf 37°C vorgeheizten Heizblock gestellt und 30min bei 37°C inkubiert. Die Inkubation wird nach Zugabe von 4µL 5x Stop Puffer abgestoppt. Danach werden 10µL des Ansatzes auf ein 1,2% Agarosegel mit 0,25µg/mL Ethidiumbromid aufgetragen und 2,5h bei 100V aufgetrennt. Zum Schluß wird das Gel unter UV Anregung fotografiert (s. Figur 3). Die Quantifizierung der Inhibierung der pRYG Relaxation erfolgt mit der GelPro®Analyzer Software (s. Figur 4).

[8] = test system: LT12/mdr; test: XTT proliferation assay, resistant LT12/mdr; format: cell-based; conditions: Rattus norvegicus
From the text: as §1, §2, §3

[9] = test system: Doxorubicin-resistente P388; test: XTT proliferation assay, doxorubicin-resistant P388; format: cell-based, murine; conditions: Mus musculus
From the text: as §1, §2, §3

[10] = test system: ovariale Adenokarzinomzelllinie SKOV-3 (ATCC HTB77); test: XTT proliferation assay (cytotoxicity test), SKOV-3; format: cell-based; conditions: Homo sapiens, SK-OV-3; SKOV3; read-out: XTT Proliferationsassay, EC50
From the text: as §1, with “503473).” for “503473). Tabelle 1:”

[11] = test system: Melanom, MEXF462; format: in vivo, Mäuse; conditions: 80 mg/kg p.o.; day 18
From the text: Die in vivo Aktivität und Verträglichkeit der erfindungsgemäßen Verbindung 2 wurde im Vergleich zu den Substanzen 10 und 14 in einem humanen Xenograft-Modell (Melanom, MEXF462) überprüft. Die Ergebnisse sind in der nachfolgenden Tabelle 6 zusammengefasst: in vivo Aktivitäten von Verbindung 2, 10 and 14 (Melanom; MEXF462) Tabelle 6: […]

[12] = test system: humane Glioblastom Zelllinie SF-268 (NCI 503138); test: XTT proliferation assay (cytotoxicity test), SF-268; format: cell-based; conditions: Homo sapiens, read-out: XTT Proliferationsassay, EC50
From the text: as §1, with “503473).” for “503473). Tabelle 1:”

[13] = test system: murine L1210; test: XTT proliferation assay, L1210 wild type; format: cell-based; conditions: Mus musculus, L1210, read-out: XTT Proliferationsassay, EC50
From the text: as §1, §2, §3

[14] = test system: humane Cervixkarzinom Zelllinie KB/HeLa (ATCC CCL17); test: XTT proliferation assay (cytotoxicity test), KB/HeLa; format: cell-based; conditions: Homo sapiens, read-out: XTT Proliferationsassay, EC50
From the text: as §1, with “503473).” for “503473). Tabelle 1:”

[15] = test system: Lungenkarzinom Zelllinie NCI-H460 (NCI 503473); test: XTT proliferation assay (cytotoxicity test), NCI-H460; format: cell-based; conditions: Homo sapiens, NCl-H460, read-out: XTT Proliferationsassay, EC50
From the text: as §1, with “503473).” for “503473). Tabelle 1:”

[16] = test system: murine P388 Zelllinie (methyl-cholanthreneinduced lymphoid neoplasm); test: XTT proliferation assay, P388 wild type; format: cell-based; conditions: Mus musculus, P388, read-out: XTT Proliferationsassay, EC50
From the text: as §1, §2, §3

[17] = test system: Mamma, MAXF857; format: in vivo, Mäuse; conditions: 80 mg/kg p.o.
From the text: Die in vivo Aktivität und Verträglichkeit der erfindungsgemäßen Verbindung 2 wurde im Vergleich zu der Substanz 10 in einem weiteren humanen Xenograft-Modell (Mamma, MAXF857) überprüft. Die Ergebnisse werden in der nächsten Tabelle gezeigt: Effect of 2 and 10 on the Mammary Cancer MAXF857 Tabelle 7: […]

[18] = test system: akute myeloische Leukaemie Zelllinie LT12; test: XTT proliferation assay, LT12 wild type; format: cell-based; conditions: Rattus norvegicus, LT12, read-out: XTT Proliferationsassay, EC50
From the text: as §1, §2, §3

Sequence of humaner DNA-Topoisomerase II (P11388 whole entry): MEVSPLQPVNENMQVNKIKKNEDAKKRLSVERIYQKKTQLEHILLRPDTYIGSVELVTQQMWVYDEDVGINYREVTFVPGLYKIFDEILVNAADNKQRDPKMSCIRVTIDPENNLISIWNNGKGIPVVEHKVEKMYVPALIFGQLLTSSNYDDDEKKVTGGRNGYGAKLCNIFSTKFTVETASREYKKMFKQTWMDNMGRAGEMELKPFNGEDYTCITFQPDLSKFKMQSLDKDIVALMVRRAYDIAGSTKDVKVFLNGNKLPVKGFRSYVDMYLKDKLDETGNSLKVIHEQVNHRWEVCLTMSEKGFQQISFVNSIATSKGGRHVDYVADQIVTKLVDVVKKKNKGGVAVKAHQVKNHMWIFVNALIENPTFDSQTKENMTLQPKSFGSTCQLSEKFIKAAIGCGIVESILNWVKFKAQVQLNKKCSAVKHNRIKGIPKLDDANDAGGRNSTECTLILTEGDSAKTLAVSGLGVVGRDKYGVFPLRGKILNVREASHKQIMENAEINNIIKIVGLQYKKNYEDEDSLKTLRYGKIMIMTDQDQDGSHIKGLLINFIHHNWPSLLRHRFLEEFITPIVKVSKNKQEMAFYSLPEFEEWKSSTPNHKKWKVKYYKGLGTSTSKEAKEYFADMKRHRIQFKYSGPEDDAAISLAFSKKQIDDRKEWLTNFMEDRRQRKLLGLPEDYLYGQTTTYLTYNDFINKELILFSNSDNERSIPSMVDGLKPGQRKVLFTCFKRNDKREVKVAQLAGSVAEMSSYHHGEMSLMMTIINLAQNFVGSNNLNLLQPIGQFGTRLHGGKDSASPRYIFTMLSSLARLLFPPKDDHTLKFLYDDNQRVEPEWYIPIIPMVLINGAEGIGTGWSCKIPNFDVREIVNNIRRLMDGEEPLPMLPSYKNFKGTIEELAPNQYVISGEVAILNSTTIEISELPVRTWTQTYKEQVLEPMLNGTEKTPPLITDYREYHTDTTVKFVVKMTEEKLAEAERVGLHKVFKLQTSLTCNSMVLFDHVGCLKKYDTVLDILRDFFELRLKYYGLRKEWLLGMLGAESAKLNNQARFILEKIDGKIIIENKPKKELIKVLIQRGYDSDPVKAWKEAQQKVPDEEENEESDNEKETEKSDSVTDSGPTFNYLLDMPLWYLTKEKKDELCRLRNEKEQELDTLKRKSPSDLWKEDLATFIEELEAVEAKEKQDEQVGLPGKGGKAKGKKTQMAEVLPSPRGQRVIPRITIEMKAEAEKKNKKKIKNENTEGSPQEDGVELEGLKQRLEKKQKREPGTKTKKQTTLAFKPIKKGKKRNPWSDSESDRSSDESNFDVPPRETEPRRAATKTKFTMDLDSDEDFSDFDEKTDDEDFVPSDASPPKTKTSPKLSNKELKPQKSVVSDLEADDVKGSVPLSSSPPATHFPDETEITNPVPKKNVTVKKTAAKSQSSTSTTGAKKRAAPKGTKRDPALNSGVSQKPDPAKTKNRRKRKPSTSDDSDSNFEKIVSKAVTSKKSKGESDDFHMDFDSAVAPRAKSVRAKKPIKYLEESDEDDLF
Sequence of human Topoisomerase II (P11388 whole entry): as above

Structure (SMILES): O=C(Nc1cnc2nccnc2c1)C(=O)c1cn(Cc2ccc(Cl)cc2)c2ccccc12 [Verbindung 1, 2-[1-(4-Chlor-benzyl)-1H-indol-3-yl]-2-oxo-N-pyrido[2,3-b]pyrazin-7-yl-acetamid]
- EC50 ([1]; L1210, L1210VCR, read-out: XTT Proliferationsassay, EC50): 0.021 µg/mL (≈ 0.0475 µM)
- Hemmung der Topoisomerase II (Inhibierung der Decatenation von kDNA) [2]: signifikante Hemmung
- EC50 ([3]; KB/HeLa cells, 0.1-1000 nM, 24 h at 37°C): 25.2 nM
- Sättigungslöslichkeit in Wasser [4]: 25.0 µg/mL
- Hemmung der Tubulin-Polymerisation, EC50 ([5]; tubulin with 30% associated proteins (MAPs), mean of two independent experiments): 0.71 µg/mL
- Hemmwirkung auf die Polymerisation von Tubulin ([5]; verbal summary of Table 3): sehr potente Hemmwirkung
- Nucleosomen im Zelllysat [6]: konzentrationsabhängiger Anstieg
- Nucleosomen im Zellkulturüberstand [6]: kein signifikanter Anstieg
- Hemmung der Topoisomerase II (Inhibierung der pRYG Relaxation) [7]: signifikante Hemmung
- EC50 ([8]; LT12, LT12mdr, read-out: XTT Proliferationsassay, EC50): 0.017 µg/mL (≈ 0.0385 µM)
- EC50 ([9]; P388, P388ADR, read-out: XTT Proliferationsassay, EC50): 0.019 µg/mL (≈ 0.043 µM)

Structure (SMILES): CC(=O)N(C(=O)C(=O)c1cn(Cc2ccc(Cl)cc2)c2ccccc12)c1ccc2ncccc2c1 [Verbindung 2, N-{2-[1-(4-Chlor-benzyl)-1H-indol-3-yl]-2-oxo-acetyl}-N-chinolin-6-yl-acetamid]
- EC50 ([1]; L1210, read-out: XTT Proliferationsassay, EC50): 0.558 µg/mL (≈ 1.16 µM)
- EC50 [10]: 0.123 µg/mL (≈ 0.255 µM)
- Optimale T/C % (Tag) [11]: 0.0%
- EC50 ([3]; HeLa, 24 h): 125 nM
- Sättigungslöslichkeit in Wasser [4]: 28.5 µg/mL
- Nucleosomen im Zelllysat [6]: konzentrationsabhängiger Anstieg
- Nucleosomen im Zellkulturüberstand [6]: kein signifikanter Anstieg
- EC50 [12]: 0.166 µg/mL (≈ 0.344 µM)
- EC50 [13]: 0.206 µg/mL (≈ 0.427 µM)
- EC50 [14]: 0.202 µg/mL (≈ 0.419 µM)
- EC50 ([8]; LT12, read-out: XTT Proliferationsassay, EC50): 0.272 µg/mL (≈ 0.564 µM)
- EC50 [15]: 0.168 µg/mL (≈ 0.349 µM)
- EC50 [16]: 0.224 µg/mL (≈ 0.465 µM)
- Optimale T/C % (Tag) ([17]; day 10): 9.6% (10)
- Todesfällen ([17]; dead animals / total): 0/6 Mäuse
- EC50 [18]: 0.225 µg/mL (≈ 0.467 µM)
- EC50 ([9]; P388, read-out: XTT Proliferationsassay, EC50): 0.215 µg/mL (≈ 0.446 µM)
